The source made the active and inactive calls. No cut-off for these calls is given here.
Key:
SGBS [1] = experiment: Induction of adipogenic differentiation in human SGBS cells assessed as increase in perilipin A mRNA expression A at 0.01 to 1 uM by RT-PCR analysis; type: functional, cell-based; settings: dose 0.01-1 µM
SGBS [2] = experiment: Induction of browning in human SGBS cells assessed as increase in UQCRC2 mRNA expression by qRT-PCR analysis; type: functional, cell-based; settings: dose 0.01-1 µM
SGBS [3] = experiment: Induction of adipogenic differentiation in human SGBS cells assessed as intracellular lipid droplet accumulation at 0.01 to 1 uM measured after 4 days by Nile red staining based imaging analysis; type: functional, cell-based; settings: dose 0.01-1 µM, time 4.0 day
SGBS [4] = experiment: Induction of browning in human SGBS cells assessed as increase in UCP1 mRNA expression at 0.01 to 1 uM by RT-PCR analysis; type: functional, cell-based; settings: dose 0.01-1 µM
SGBS [5] = experiment: Induction of proton leakage in human SGBS cells assessed as increase in oxygen consumption rate at 0.01 to 1 uM with sequential addition of oligomycin measured after 14 days by Seahorse XFe96 flux analyzer; type: functional, cell-based; settings: dose 0.01-1 µM, time 14.0 day
SGBS [6] = experiment: Induction of cellular respiration in human SGBS cells assessed as increase in oxygen consumption rate at 0.01 to 1 uM with ATP-linked sequential addition of FCCP measured after 14 days by Seahorse XFe96 flux analyzer; type: functional, cell-based; settings: dose 0.01-1 µM, time 14.0 day
SGBS [7] = experiment: Induction of basal respiration in human SGBS cells assessed as increase in oxygen consumption rate at 0.01 to 1 uM incubated for 14 days in presence of dibutyryl-cAMP by Seahorse XFe96 flux analyzer; type: functional, cell-based; settings: dose 0.01-1 µM, time 14.0 day
SGBS [8] = experiment: Induction of browning in human SGBS cells assessed as increase in UQCRC2 mRNA expression at 0.01 to 1 uM by qRT-PCR analysis; type: functional, cell-based; settings: dose 0.01-1 µM
[9] = molecular target: T1, Oxysterols receptor LXR-alpha (Homo sapiens) (UniProt Q13133); experiment: Agonist activity at human GAL4 DBD-fused LXRalpha LBD (182 to 447 residues) transfected in HEK293T cells assessed as fold activation at 10 uM incubated for 14 to 16 hrs by Renilla/Firefly dual-luciferase reporter assay; type: cell-based; settings: time 14-16 hrs
T1 sequence (whole entry): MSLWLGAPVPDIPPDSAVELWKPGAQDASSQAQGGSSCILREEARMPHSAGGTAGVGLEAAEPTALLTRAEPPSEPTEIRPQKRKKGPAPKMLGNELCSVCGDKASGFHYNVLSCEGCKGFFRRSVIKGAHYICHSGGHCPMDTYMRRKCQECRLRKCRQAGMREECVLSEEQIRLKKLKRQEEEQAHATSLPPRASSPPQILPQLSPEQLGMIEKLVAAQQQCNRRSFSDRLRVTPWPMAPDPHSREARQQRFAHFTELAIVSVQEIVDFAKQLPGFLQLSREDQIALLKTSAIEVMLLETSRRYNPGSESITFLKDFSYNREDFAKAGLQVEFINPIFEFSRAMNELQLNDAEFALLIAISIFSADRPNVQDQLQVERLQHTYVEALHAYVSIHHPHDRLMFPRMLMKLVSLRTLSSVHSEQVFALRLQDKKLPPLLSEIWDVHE

Heart [10] = experiment: Cardioprotective activity in Langendorff-perfused wild-type C57BL/6 mouse heart assessed as increase in heart rate at 300 nM; type: functional, tissue-based
[11] = molecular target: T2, Vitamin D3 receptor (Homo sapiens) (UniProt P11473); experiment: Agonist activity at human GAL4 DBD-fused VDR LBD (119 to 427 residues) transfected in HEK293T cells assessed as fold activation at 10 uM incubated for 14 to 16 hrs by Renilla/Firefly dual-luciferase reporter assay; type: cell-based; settings: time 14-16 hrs
T2 sequence (whole entry): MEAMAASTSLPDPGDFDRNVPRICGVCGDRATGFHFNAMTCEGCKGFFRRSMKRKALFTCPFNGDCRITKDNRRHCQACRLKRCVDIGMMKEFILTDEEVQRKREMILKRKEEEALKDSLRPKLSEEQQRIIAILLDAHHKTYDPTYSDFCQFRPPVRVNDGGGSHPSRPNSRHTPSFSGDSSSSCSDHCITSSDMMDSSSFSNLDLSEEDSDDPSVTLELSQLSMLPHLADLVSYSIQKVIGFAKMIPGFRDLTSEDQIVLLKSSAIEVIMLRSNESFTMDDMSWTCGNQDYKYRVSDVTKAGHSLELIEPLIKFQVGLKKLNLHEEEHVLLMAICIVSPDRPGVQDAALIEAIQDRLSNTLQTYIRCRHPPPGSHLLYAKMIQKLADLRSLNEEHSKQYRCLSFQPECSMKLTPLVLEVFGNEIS

[12] = molecular target: T3, Peroxisome proliferator-activated receptor alpha (Homo sapiens) (UniProt Q07869); experiment: Agonist activity at human GAL4 DBD-fused PPARalpha ( 164 to 466 residues) LBD transfected in HEK293T cells assessed as fold activation at 10 uM incubated for 14 to 16 hrs by Renilla/Firefly dual-luciferase reporter assay; type: cell-based; settings: filed as agonist, time 14-16 hrs
T3 sequence (whole entry): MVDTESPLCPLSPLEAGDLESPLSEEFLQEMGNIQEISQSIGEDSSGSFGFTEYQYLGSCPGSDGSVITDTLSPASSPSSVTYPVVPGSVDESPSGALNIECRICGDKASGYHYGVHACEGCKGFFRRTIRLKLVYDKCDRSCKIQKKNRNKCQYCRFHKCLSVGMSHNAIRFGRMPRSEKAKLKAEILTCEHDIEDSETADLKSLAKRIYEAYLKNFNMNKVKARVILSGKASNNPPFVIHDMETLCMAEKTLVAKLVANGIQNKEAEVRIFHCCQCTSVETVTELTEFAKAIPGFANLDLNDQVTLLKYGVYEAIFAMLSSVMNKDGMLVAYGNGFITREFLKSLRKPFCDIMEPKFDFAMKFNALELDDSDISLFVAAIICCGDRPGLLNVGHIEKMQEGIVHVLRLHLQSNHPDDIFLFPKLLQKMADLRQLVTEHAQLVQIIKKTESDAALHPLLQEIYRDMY

[13] = molecular target: T4, Peroxisome proliferator-activated receptor delta (Homo sapiens) (UniProt Q03181); experiment: Agonist activity at human GAL4 DBD-fused PPARdelta LBD (138 to 441 residues) transfected in HEK293T cells assessed as fold activation at 10 uM incubated for 14 to 16 hrs by Renilla/Firefly dual-luciferase reporter assay; type: cell-based; settings: time 14-16 hrs
T4 sequence (whole entry): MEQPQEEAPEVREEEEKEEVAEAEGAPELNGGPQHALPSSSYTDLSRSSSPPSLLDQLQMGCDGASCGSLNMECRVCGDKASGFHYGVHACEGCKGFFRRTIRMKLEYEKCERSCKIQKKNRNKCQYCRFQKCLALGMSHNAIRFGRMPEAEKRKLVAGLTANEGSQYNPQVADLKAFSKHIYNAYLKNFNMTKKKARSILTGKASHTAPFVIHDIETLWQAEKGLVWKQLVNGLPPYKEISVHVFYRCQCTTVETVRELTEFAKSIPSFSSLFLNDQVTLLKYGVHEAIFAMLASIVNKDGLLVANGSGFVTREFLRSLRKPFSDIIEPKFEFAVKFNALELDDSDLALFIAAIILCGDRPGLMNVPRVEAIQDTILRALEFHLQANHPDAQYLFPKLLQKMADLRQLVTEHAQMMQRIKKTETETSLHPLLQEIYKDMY

[14] = molecular target: T5, Retinoic acid receptor alpha (Homo sapiens) (UniProt P10276); experiment: Agonist activity at human GAL4 DBD-fused RARalpha LBD (177 to 462 residues) transfected in HEK293T cells assessed as fold activation at 10 uM incubated for 14 to 16 hrs by Renilla/Firefly dual-luciferase reporter assay; type: cell-based; settings: time 14-16 hrs
T5 sequence (whole entry): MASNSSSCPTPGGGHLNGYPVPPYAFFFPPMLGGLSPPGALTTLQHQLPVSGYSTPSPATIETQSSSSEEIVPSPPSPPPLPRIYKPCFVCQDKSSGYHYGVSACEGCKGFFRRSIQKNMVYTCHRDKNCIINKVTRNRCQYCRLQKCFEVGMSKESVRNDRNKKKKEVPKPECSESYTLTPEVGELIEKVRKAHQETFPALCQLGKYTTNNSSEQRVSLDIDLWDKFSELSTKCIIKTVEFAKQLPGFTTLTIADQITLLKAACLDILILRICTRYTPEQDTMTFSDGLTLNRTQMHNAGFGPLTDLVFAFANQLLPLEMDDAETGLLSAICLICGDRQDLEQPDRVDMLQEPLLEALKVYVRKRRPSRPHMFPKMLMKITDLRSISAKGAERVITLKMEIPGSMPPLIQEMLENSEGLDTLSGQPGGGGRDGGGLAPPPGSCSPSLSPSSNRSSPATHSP

Heart [15] = experiment: Cardioprotective activity in Langendorff-perfused wild-type C57BL/6 mouse heart assessed as increase in heart rate at 3 nM; type: functional, tissue-based
Mus musculus [16] = organism: Mus musculus; experiment: (§1) Cardioprotective activity in Langendorff-perfused wild-type C57BL/6 mouse model of coronary occlusion induced ischemia/reperfusion assessed as increase in left ventricular developed pressure at 3 nmol/L followed by ischemia for 20 mins and measured 2 hrs after reperfusion […]; type: functional, organism-based; settings: time 140.0 min
Mus musculus [17] = organism: Mus musculus; experiment: as §1, with “decrease” for “increase”, “end diastolic” for “developed”; type: functional, organism-based; settings: time 140.0 min
Heart [18] = experiment: Cardioprotective activity in Langendorff-perfused wild-type C57BL/6 mouse heart assessed as increase in heart rate at 30 nM; type: functional, tissue-based

| SMILES | Activity (SGBS [1]) | Activity (SGBS [2]) | Activity (SGBS [3]) | Activity (SGBS [4]) | Activity (SGBS [5]) | Activity (SGBS [6]) | Activity (SGBS [7]) | Activity (SGBS [8]) | Activity [9] | Activity (Heart [10]) | Activity [11] | Activity [12] | Activity [13] | Activity [14] | Activity (Heart [15]) | Activity (Mus musculus [16]) | Activity (Mus musculus [17]) | Activity (Heart [18]) |
| --- | --- | --- | --- | --- | --- | --- | --- | --- | --- | --- | --- | --- | --- | --- | --- | --- | --- | --- |
| CN(CCOc1ccc(CC2SC(=O)NC2=O)cc1)c1ccccn1 (configuration not stated) | Active | Dose-Dependent Effect |  |  |  |  |  |  |  |  |  |  |  |  |  |  |  |  |
| CC[C@@H](Cc1ccc(C(=O)NCc2ccc(OC)cc2C(F)(F)F)cc1)C(=O)O | Active |  | inactive | inactive | Active | Active | Active | inactive |  |  |  |  |  |  |  |  |  |  |
| CC[C@H](Cc1ccc(C(=O)NCc2ccc(OC)cc2C(F)(F)F)cc1)C(=O)O | Active |  | Active | Active | Active | Active | Active | inactive | inactive | Active | inactive | Active | inactive | inactive | inactive | Active | Active |  |
| O=C(NC12CC3CC(CC(C3)C1)C2)N[C@H]1CC[C@H](Oc2ccc(C(=O)O)cc2)CC1 |  |  |  |  |  |  |  |  |  |  |  |  |  |  | inactive |  |  | Active |

Reference: ChEMBL document CHEMBL5042470, “Combined Cardioprotective and Adipocyte Browning Effects Promoted by the Eutomer of Dual sEH/PPARγ Modulator” (J Med Chem, 2021)
